Measurements taken from US20240060949A1, “BIOSYSTEMS TO DETECT CHEMICAL CONTAMINANTS” (priority 2020, published 2024).
Like-named read-outs stand apart in the source and are kept apart here.

Experiments:
[1] = test system: CYP1A2 and CYP2C19; format: biochemical
Description: The bioassay was performed in a 96-well plate. 80 μL of sample is added to wells in triplicate. […] After the preparation, 10 μL of enzyme mixture were added to each plate. After incubating at room temperature 10 μL of substrate mixture (5 μM of substrate EOMCC and 30 μM Vivid® NADP^+ diluted in working buffer) was added. The plate was incubated 30 minutes at 30° C. and when time passed, fluorescence signal was measured with a fluorometric reader, 410 nm and 460 nm were the excitation and emission wavelengths, respectively. A blank sample, buffer solution, was measured at the same time and the reduction of the signal, inhibition of enzyme activity, was calculated and associated with the presence of contaminants.

[2] = biological target: T1, CYP3A4 (Homo sapiens, UniProt P08684); format: biochemical; settings: CYP3A4, DBF substrate; concentration providing 20% inhibition (IC20)
T1 sequence (P08684 whole entry): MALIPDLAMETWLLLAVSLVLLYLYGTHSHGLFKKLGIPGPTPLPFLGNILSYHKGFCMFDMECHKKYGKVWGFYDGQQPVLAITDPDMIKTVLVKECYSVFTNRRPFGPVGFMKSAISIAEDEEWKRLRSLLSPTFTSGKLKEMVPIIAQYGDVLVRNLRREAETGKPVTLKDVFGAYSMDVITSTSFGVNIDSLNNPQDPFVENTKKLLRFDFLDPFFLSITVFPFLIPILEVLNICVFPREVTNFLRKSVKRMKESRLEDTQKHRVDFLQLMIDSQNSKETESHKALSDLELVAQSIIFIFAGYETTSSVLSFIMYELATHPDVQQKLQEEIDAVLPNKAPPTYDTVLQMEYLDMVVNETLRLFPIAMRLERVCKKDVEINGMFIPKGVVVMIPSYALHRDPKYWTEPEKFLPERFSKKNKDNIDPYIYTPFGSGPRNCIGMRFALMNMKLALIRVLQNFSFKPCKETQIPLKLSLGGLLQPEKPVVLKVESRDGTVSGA
Description: (§1) The bioassay was performed in a 96-well plate. 50 μL of a solution containing PAHs or BFRs is added to wells in triplicate. […] After incubating at room temperature 10 μL of substrate mixture (5 μM of substrate (EOMCC for CYP1A2, BOMCC for CYP2B6 or DBF for CYP3A4) and 30 μM Vivid® NADP^+ diluted in working buffer) was added. The plate was incubated 30 minutes at 25° C. and when time passed, fluorescence signal was measured with a fluorometric reader, 410/490 nm and 460/520 nm were the excitation and emission wavelengths, respectively. A blank sample, buffer solution, was measured at the same time and the reduction of the signal, inhibition of enzyme activity, was calculated and associated with the presence of contaminants.

[3] = biological target: T1, CYP3A4; format: biochemical; settings: for Inhibition percentage I (%): lateral flow reader; for Limit of detection: CYP3A4 lateral flow, concentration providing 20% of inhibition, estimated
Description: The metabolism of two different fluorescent substrates was used to determine the percent of inhibition of CYP3A4 as response to the contaminant concentrations. The enzymatic reactions were carried out in 96-well plates adding 80 μL of potassium phosphate buffer (100 mM, pH 8.0) or 100 ng/mL of standard solutions in duplicates. Both brominated compounds were prepared in potassium phosphate buffer (100 mM, pH 8.0) and tested as inhibitors of CYP3A4 activity. […] Subsequently, 10 μL of enzyme mixture were added to each well, homogenised and allowed to pre-incubate during 10 minutes at room temperature. Two different substrate mixtures were used in combination with brominated molecules. To evaluate the inhibition promoted by BDE-100, 10 μL of a substrate mixture containing 2 μM of DBF and 30 μM Vivid® NADP+ in potassium phosphate buffer (100 mM, pH8.0), were added to the appropriated wells. The inhibitory effect of HBCD concentration was tested for a substrate mixture, containing 2 μM of DBOMF and 30 μM Vivid® NADP+ prepared in potassium phosphate buffer (100 mM, pH8.0), from which 10 μL were added to the appropriated wells. After the addition of the respective substrate probes, the plate was newly incubated at 25° C. for 60 minutes. The resulting reaction broths were diluted 10 and 20 times in buffer, for respectively DBF and BDE-100, and for DBOMF and HBCD reactions. Finally, 1.5 μL of diluted broths were pipetted as a line onto nitrocellulose membranes and the fluorometric measurements carried out at a lateral flow reader (ESEQuant LR3, QIAGEN) with a fluorometric channel of 470 nm and 520 nm as excitation and emission wavelengths, respectively. A blank sample, buffer solution, was measured at the same time and the reduction of the signal, inhibition of enzyme activity, was calculated and associated with the presence of each BDE, as shown in Table 5.
Considering the signal intensity developed for different levels of the contaminant molecules, the concentration providing 20% of inhibition was selected as limit of detection, estimated to be 36 ng/mL and 14 ng/mL for BDE-100 and HBCD, respectively.

[4] = biological target: CYP2B10 (Mus musculus, UniProt P12791); settings: CYP2B10, 3 μM BOMCC; concentration that induces 20% inhibition (Table 8)
Chain of CYP2B10 (P12791 whole entry): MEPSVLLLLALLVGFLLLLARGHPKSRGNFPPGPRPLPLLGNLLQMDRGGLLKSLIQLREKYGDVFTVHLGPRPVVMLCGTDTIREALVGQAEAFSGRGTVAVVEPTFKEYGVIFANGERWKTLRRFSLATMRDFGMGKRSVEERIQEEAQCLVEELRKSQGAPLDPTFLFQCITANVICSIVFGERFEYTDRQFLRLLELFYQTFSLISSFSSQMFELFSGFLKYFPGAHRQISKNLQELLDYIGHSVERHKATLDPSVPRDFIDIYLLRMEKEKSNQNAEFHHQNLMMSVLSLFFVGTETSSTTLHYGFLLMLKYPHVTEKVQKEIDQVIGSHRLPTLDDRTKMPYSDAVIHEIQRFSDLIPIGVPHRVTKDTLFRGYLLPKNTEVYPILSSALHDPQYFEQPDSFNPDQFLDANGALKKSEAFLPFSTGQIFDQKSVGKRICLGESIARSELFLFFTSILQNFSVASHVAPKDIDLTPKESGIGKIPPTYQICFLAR

[5] = biological target: T1, CYP3A4; settings: pH 8
[6] = biological target: T2, CYP2B6 (Homo sapiens, UniProt P20813); settings: pH 7.4
T2 sequence (P20813 whole entry): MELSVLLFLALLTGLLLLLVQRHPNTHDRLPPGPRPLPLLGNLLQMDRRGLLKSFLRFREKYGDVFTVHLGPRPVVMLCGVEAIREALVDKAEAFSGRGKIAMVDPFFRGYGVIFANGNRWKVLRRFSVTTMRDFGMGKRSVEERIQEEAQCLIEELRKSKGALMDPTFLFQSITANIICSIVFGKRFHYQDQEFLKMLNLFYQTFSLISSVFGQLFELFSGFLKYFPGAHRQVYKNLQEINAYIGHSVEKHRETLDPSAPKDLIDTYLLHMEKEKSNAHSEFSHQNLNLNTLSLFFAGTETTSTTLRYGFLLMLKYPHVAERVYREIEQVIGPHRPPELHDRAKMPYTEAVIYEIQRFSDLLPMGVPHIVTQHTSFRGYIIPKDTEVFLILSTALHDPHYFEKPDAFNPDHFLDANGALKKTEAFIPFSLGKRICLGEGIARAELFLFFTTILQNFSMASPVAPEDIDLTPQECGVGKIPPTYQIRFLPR

[7] = biological target: T2, CYP2B6; format: biochemical
Description: as §1

[8] = biological target: T1, CYP3A4; format: biochemical; settings: CYP3A4 electrochemical biosensor, 50 μM progesterone, estimated
Description: The working electrodes (WE) of screen-printed carbon electrodes (SPCE) (C110, from Methrom-Dropsens), were modified with 3 μL suspension of 1 mg/mL of single-walled carbon nanotubes. After chloroform evaporation, 5 μL of a 0.08 nmol/mL solution of CYP3A4 (recombinant, expressed in E. Coli from Sigma-Aldrich) was deposited onto the modified WE surface and incubated overnight at 4° C. 100 mM of potassium phosphate buffer saline (PBS) at pH 8.0, containing 50 mM of potassium chloride, was used to prepare the standards, as well as a supporting electrolyte for the electrochemical measurements. Aliquots (60 μL) of 50 μM progesterone solutions containing 0, 50, 100, 200 and 300 ng/mL of HBCD, were placed onto the working area of the SPCE by drop-casting, incubated for 2 minutes at room temperature and the electrochemical measurements performed. For each sample, one cyclic voltammetric scan was carried out, sweeping the potential from −0.75 V to 0.30 V at 0.02 V/s. The peak height of the cathodic peaks generated near to −0.55 V was registered and HBCD presence, calculated using as reference the peak of the blank assay (buffer solution). The electrochemical signal registered at CYP3A4-based biosensor, respond to the concentration of HBCD, allowing to establish the I (%) values for different concentrations of this compound (FIG. 1). Limit of detection was estimated to be 42.8 ng/mL for HBCD.

[9] = CYP2B6, BOMCC substrate, concentration providing 20% inhibition (IC20)

13,19-didesmethyl C spirolide
Limit of detection [1]: 10 µg/L

C=C(C[C@@]12C[C@@H](C)C[C@H](O1)[C@H]1O[C@]3(C[C@H]1O2)NC[C@H](C)C[C@@H]3C)[C@H]1O[C@@](O)([C@@H](O)[C@@H]2C[C@H]3O[C@@]4(CC[C@]5(CC=C[C@@H](/C=C/CCC(=O)O)O5)O4)[C@H](C)C[C@H]3O2)[C@H](C)C[C@@H]1C [Azaspiracid-1]
Limit of detection ([1]; CYP1A2 and CYP2C19, 5 μM EOMCC, concentration that induces 20% inhibition): 3 µg/L

Brc1ccc(Oc2ccc(Br)cc2Br)cc1 [BDE-28, 2,4,4′-Tribromodiphenyl ether]
Limits of detection [2]: 100 ng/mL

Brc1ccc(Oc2ccc(Br)cc2Br)c(Br)c1 [BDE-47, 2,2′,4,4′-Tetrabromodiphenyl ether]
Limits of detection [2]: 5 ng/mL

Brc1ccc(Oc2cc(Br)c(Br)cc2Br)c(Br)c1 [BDE-99, 2,2′,4,4′,5-Pentabromodiphenyl ether]
Limits of detection [2]: 100 ng/mL

Brc1ccc(Oc2c(Br)cc(Br)cc2Br)c(Br)c1 [BDE-100, 2,2′,4,4′,6-Pentabromodiphenyl ether]
Limits of detection [2]: 5 ng/mL
Inhibition percentage I (%) ([3]; CYP3A4, 2 μM DBF, 100 ng/ml contaminant): 55.4%
Limit of detection ([3]; DBF substrate): 36 ng/mL

Brc1cc(Br)c(Oc2cc(Br)c(Br)cc2Br)cc1Br [BDE-153, 2,2′,4,4′,5,5′-Hexabromodiphenyl ether]
Limits of detection [2]: 5 ng/mL

Brc1cc(Br)c(Oc2cc(Br)c(Br)cc2Br)c(Br)c1 [BDE-154, 2,2′,4,4′,5,6′-Hexabromodiphenyl ether]
Limits of detection [2]: 5 ng/mL

Brc1c(Br)c(Br)c(Oc2c(Br)c(Br)c(Br)c(Br)c2Br)c(Br)c1Br [BDE-209, Decabromodiphenyl ether]
Limits of detection [2]: 10 ng/mL

[CH3][Hg][Cl] [Methylmercury]
Limits of detection CYP2B10 [4]: 44.3 ng/mL

N[C@@H](CCC(=O)O)C(=O)[O-].[Na+] [Monosodium glutamate]
Limits of detection CYP3A4 [5]: 3.6 mg/mL

O=C([O-])c1ccccc1.[Na+] [Sodium Benzoate]
Limits of detection CYP2B10 [4]: 3.2e+06 ng/mL

O=NO [Sodium Nitrite]
Limits of detection CYP2B6 [6]: 2.3 mg/mL

C=CCC(=C)/C=C/[C@@](C)(O)[C@H]1O[C@@H]2C[C@@H]3O[C@@H]4C[C@@H]5O[C@@H]6C[C@@H]7O[C@@H]8C[C@@H]9O[C@@H]%10C[C@@H]%11O[C@](C)(CCOS(=O)(=O)O)[C@@H](OS(=O)(=O)O)C[C@H]%11O[C@H]%10C[C@H]9O[C@H]8CC[C@@]7(C)O[C@@]6(C)CC[C@H](C)[C@H]5O[C@H]4C[C@@]3(C)O[C@H]2CC1=C [Yessotoxin]
Limit of detection ([1]; human): 45 µg/L

c1ccc2cc3c(ccc4ccccc43)cc2c1 [benz(a)anthracene (BaA), benz(a)anthracene]
Limit of detection ([7]; human): 5 µg/L

c1ccc2c(c1)cc1ccc3cccc4ccc2c1c34 [benzo(a)pyrene (BaP), benzo(a)pyrene]
Limit of detection [7, 9]: 15 µg/L

c1ccc2c(c1)-c1cccc3c1c-2cc1ccccc13 [benzo(b)fluoranthene (BbF), benzo(b)fluoranthene]
Limit of detection [7, 9]: 20 µg/L

c1ccc2c(c1)ccc1c3ccccc3ccc21 [chrysene (Chrys), chrysene]
Limit of detection [7, 9]: 10 µg/L

Hexabromocyclododecane [HBCD]
Inhibition percentage I (%) ([3]; CYP3A4, 2 μM DBOMF, 50 ng/mL contaminant): 69.8%
Inhibition percentage I (%) ([3]; CYP3A4, 2 μM DBOMF, 100 ng/mL contaminant): 84.3%
Limit of detection ([3]; DBOMF substrate): 14 ng/mL
Limit of detection [8]: 42.8 ng/mL
